The values below are quoted from earlier work in patent US20110212474A1, “ABNORMAL ALTERATIONS OF PKC ISOZYMES PROCESSING IN ALZHEIMER'S DISEASE PERIPHERAL CELLS” (BLANCHETTE ROCKEFELLER NEUROSCIENCES INSTITUTE, priority 2009, published 2011).

The test system of data set [1] is PKC. To be noted: postischemic/hypoxic treatment.
Data set [2] concerns Aβ (1-42). To be noted: transgenic mice with human AD genes.
The subject of data set [3] is PKC-α. To be noted: non-AD (AC) fibroblasts, nanomolar concentrations of Aβ (1-40).
Data set [4] deals with PKC-γ. To be noted: AD fibroblasts, Aβ (1-40).

Turning to `CCC/C=C/C=C/C(=O)O[C@H]1/C(=C/C(=O)OC)C[C@H]2C[C@H]([C@@H](C)O)OC(=O)C[C@H](O)C[C@@H]3C[C@H](OC(C)=O)C(C)(C)[C@](O)(C[C@@H]4C/C(=C/C(=O)OC)C[C@H](/C=C/C(C)(C)[C@]1(O)O2)O4)O3` [bryostatin-1], the “effect on ischemia-induced deficits in synaptogenesis, neurotrophic activity, and spatial learning and memory” value in data set [1] is reported as “effectively rescued ischemia-induced deficits”. In addition, in data set [2], the “effect on Aβ (1-42) levels in the brains” value is given as “reduce Aβ (1-42) levels”.

On to “Aβ (1-40): Aβ peptide, "short form," 40 amino acids in length, from Amyloid Precursor Protein”, for which the “decrease in PKC-α immunoreactivity” value in data set [3] is 75%. The “reduction of PKC-γ immunoreactivity” value in data set [4] is 70%.
